This note sets out measurements from ChEMBL document CHEMBL1909046, “DrugMatrix in vitro pharmacology data”.

Data set [1] deals with Delta-type opioid receptor (Homo sapiens, UniProt P41143). It counts as cell membranes, HEK293, Membrane. As to conditions: hek293.
The next data set deals with T1, Thromboxane-A synthase (Homo sapiens, UniProt P24557).
T1 sequence (P24557 whole entry): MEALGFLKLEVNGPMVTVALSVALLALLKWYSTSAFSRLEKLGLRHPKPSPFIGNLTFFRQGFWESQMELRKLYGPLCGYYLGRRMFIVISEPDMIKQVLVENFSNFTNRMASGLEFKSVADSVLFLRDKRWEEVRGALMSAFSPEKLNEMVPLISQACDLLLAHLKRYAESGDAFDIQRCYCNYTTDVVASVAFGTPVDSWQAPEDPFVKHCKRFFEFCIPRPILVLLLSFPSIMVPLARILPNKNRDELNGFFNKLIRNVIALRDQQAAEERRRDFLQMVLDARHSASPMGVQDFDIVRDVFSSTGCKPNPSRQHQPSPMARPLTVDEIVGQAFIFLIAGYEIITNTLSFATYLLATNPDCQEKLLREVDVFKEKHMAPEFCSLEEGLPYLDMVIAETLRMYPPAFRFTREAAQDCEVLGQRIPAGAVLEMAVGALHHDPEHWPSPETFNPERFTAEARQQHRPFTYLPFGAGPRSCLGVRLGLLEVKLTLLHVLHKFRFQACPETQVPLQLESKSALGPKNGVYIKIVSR
Briefly: biochemical. Conditions: platelet. It is filed as tissue-based, Platelet.

A further data set deals with T2, Progesterone receptor (Bos taurus, UniProt Q690N0).
T2 sequence (Q690N0 whole entry): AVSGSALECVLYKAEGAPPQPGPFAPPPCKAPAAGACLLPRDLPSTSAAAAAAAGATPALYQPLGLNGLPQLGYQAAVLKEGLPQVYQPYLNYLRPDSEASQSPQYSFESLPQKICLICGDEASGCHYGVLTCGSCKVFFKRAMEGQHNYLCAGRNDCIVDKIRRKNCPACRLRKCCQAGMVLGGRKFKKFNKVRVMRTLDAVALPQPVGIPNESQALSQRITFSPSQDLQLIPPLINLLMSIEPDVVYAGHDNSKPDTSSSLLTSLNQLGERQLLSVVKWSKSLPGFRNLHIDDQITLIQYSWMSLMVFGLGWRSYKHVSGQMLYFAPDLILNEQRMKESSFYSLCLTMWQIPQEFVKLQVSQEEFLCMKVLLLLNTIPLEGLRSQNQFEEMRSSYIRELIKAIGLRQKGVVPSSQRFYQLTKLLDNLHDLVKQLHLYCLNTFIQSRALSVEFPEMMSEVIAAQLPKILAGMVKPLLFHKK
The experiment in a line: DRUGMATRIX: Progesterone radioligand binding (ligand: [3H] R-5020). As to conditions: Not Active = under 50% inhibition at 10 µM. It counts as tissue-based, Uterus.

The target in another data set is Cytochrome P450 2E1 (Homo sapiens, UniProt P05181). As to conditions: bti-tn-5b1-4. Also: in other assays of this panel Not Active means under 50% inhibition at 10 µM.
The nature of data set [2]: DRUGMATRIX: Tumor Necrosis Factor (TNF), Non-Selective radioligand binding (ligand: [125I] TNF-alpha). It counts as cell membranes, Membrane. As to conditions: u-937; Not Active = under 50% inhibition at 10 µM.
Data set [3] deals with T3, Receptor-type tyrosine-protein phosphatase C (Homo sapiens, UniProt P08575).
T3 sequence (P08575 whole entry): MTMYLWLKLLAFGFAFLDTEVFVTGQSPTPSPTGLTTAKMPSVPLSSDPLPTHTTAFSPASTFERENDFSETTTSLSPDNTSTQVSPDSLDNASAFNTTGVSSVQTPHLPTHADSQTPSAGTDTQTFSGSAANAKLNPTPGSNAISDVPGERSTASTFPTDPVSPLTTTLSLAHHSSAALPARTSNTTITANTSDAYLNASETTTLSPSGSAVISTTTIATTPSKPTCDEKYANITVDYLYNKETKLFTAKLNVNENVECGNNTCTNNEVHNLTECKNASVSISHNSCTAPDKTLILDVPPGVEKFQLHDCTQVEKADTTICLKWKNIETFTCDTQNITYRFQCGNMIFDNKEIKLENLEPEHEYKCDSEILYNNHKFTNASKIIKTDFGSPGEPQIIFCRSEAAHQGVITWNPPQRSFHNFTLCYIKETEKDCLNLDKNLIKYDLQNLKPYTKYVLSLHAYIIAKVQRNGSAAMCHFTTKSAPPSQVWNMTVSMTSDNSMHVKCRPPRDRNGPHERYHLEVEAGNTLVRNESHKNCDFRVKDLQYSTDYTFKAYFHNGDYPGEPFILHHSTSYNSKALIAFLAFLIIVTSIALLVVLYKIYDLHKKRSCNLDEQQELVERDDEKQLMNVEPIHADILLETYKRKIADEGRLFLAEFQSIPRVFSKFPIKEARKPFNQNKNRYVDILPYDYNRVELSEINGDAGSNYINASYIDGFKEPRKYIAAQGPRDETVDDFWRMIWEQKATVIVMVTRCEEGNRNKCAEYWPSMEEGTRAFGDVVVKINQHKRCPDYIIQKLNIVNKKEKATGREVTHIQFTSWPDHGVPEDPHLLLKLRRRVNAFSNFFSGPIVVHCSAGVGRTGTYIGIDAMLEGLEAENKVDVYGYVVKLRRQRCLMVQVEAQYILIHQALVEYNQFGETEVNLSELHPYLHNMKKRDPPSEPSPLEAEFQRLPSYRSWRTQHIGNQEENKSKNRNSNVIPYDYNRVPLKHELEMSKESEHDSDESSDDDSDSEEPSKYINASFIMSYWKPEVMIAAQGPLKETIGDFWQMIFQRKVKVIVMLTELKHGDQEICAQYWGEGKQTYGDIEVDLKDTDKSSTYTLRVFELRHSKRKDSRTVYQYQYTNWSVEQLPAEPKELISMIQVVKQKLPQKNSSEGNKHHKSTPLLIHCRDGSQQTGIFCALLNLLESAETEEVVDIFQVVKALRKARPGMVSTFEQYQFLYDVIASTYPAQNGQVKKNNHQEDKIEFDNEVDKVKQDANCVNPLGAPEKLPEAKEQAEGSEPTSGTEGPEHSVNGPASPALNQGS
Also noted: species or system Escherichia coli.

Cytochrome P450 2E1, sequence (P05181 whole entry): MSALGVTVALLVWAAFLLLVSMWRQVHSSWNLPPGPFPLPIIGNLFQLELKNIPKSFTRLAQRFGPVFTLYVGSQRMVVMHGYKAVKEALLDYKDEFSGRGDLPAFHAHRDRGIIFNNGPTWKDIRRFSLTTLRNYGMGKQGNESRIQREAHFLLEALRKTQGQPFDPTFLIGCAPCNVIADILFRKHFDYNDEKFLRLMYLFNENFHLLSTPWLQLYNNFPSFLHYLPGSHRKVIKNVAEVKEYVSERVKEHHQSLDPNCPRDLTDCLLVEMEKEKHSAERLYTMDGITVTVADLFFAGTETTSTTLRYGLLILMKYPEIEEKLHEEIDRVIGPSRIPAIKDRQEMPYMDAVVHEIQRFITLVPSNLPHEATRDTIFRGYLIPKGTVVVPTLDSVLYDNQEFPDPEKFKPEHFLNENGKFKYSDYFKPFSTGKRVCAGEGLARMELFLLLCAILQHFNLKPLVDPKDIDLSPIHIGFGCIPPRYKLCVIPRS
Delta-type opioid receptor, sequence (P41143 whole entry): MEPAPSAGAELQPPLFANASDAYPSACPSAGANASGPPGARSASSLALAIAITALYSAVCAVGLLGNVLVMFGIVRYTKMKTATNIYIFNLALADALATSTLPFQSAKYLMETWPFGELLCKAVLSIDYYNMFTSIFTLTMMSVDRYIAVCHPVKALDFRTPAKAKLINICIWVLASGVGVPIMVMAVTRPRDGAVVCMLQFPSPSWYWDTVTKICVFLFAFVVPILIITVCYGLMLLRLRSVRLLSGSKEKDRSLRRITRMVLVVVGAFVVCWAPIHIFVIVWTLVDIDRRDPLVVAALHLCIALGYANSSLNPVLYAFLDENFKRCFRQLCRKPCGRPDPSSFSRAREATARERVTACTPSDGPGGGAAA

For the compound `CN[C@H](CC(C)C)C(=O)N[C@H]1C(=O)N[C@@H](CC(N)=O)C(=O)N[C@H]2C(=O)N[C@H]3C(=O)N[C@H](C(=O)N[C@H](C(=O)O)c4cc(O)cc(O)c4-c4cc3ccc4O)[C@H](O)c3ccc(c(Cl)c3)Oc3cc2cc(c3O[C@@H]2O[C@H](CO)[C@@H](O)[C@H](O)[C@H]2O[C@H]2C[C@](C)(N)[C@H](O)[C@H](C)O2)Oc2ccc(cc2Cl)[C@H]1O` [VANCOMYCIN], the 50% inhibitory concentration (IC50) result (in data set [1]; against Thromboxane-A synthase; at Progesterone receptor; on Cytochrome P450 2E1; in data set [2]; in data set [3]) was “Not Active” in each case. The inhibition constant Ki result (on Cytochrome P450 2E1; in data set [2]) was “Not Active” each time.
Turning to `CN(C)[C@@H]1C(O)=C(C(N)=O)C(=O)[C@@]2(O)C(O)=C3C(=O)c4c(O)cccc4[C@@](C)(O)[C@H]3C[C@@H]12` [TETRACYCLINE], the half-inhibitory concentration (IC50) result (in data set [1]; against Thromboxane-A synthase; on Progesterone receptor; on Cytochrome P450 2E1; in data set [2]; in data set [3]) was “Not Active” throughout. The Ki entry (at Cytochrome P450 2E1; in data set [2]) was “Not Active” each time.
For `CO[C@@H]1[C@@H](O[C@@H]2O[C@H](C)[C@@H](O[C@H]3C[C@@](C)(O)[C@@H](OC(=O)CC(C)C)[C@H](C)O3)[C@H](N(C)C)[C@H]2O)[C@@H](CC=O)C[C@@H](C)[C@@H](O)/C=C/C=C/C[C@@H](C)OC(=O)C[C@H]1O` [KITASAMYCIN], the IC50 entry (in data set [1]; against Thromboxane-A synthase; at Progesterone receptor; on Cytochrome P450 2E1; in data set [2]; in data set [3]) was “Not Active” each time. The Ki entry (at Cytochrome P450 2E1; in data set [2]) was “Not Active” each time.
Take `Oc1c(I)cc(I)c2cccnc12` [IODOQUINOL]: the IC50 entry (in data set [1]; on Thromboxane-A synthase; at Progesterone receptor; against Cytochrome P450 2E1; in data set [2]; in data set [3]) was “Not Active” each time. Besides, the inhibition constant Ki entry (on Cytochrome P450 2E1; in data set [2]) was “Not Active” in each case.
Consider `NC(CO)(CO)CO` [TROMETHAMINE], for which the half-inhibitory concentration (IC50) entry (in data set [1]; on Thromboxane-A synthase; on Progesterone receptor; at Cytochrome P450 2E1; in data set [2]; in data set [3]) was “Not Active” each time. The inhibition constant (Ki) entry (on Cytochrome P450 2E1; in data set [2]) was “Not Active” throughout.
`O=[N+]([O-])c1cc([As](=O)(O)O)ccc1O` [ROXARSONE]: the 50% inhibitory concentration (IC50) entry (in data set [1]; against Thromboxane-A synthase; at Progesterone receptor; at Cytochrome P450 2E1; in data set [2]; in data set [3]) was “Not Active” in each case. Also, the inhibition constant (Ki) result (in data set [1]; at Thromboxane-A synthase; at Progesterone receptor; on Cytochrome P450 2E1; in data set [2]; in data set [3]) was “Not Active” in each case.
Consider `Cc1ncc([N+](=O)[O-])n1CC(C)O` (stereo not drawn) [SECNIDAZOLE], for which the IC50 entry (in data set [1]; against Thromboxane-A synthase; at Progesterone receptor; against Cytochrome P450 2E1; in data set [2]; in data set [3]) was “Not Active” each time. Besides, the Ki entry (on Cytochrome P450 2E1; in data set [2]) was “Not Active” throughout.
In the case of `CC1=C(/C=C/C(C)=C/C=C/C(C)=C\C(=O)O)C(C)(C)CCC1` [ISOTRETINOIN], the half-maximal inhibitory concentration (IC50) entry (in data set [1]; against Thromboxane-A synthase; on Progesterone receptor; on Cytochrome P450 2E1; in data set [2]; in data set [3]) was “Not Active” in each case. For the same compound, the inhibitory constant (Ki) result (at Cytochrome P450 2E1; in data set [2]) was “Not Active” throughout.
Take `CC(=O)S[C@@H]1CC2=CC(=O)CC[C@]2(C)[C@H]2CC[C@@]3(C)[C@@H](CC[C@@]34CCC(=O)O4)[C@H]12` [SPIRONOLACTONE]: the IC50 entry in data set [1] was “Not Active”; on Thromboxane-A synthase, “Not Active”; on Progesterone receptor (read-out: IC50), 1670 nM; against Cytochrome P450 2E1, “Not Active”; in data set [2] it was “Not Active”; in data set [3], “Not Active”. Besides, the inhibition constant (Ki) at Progesterone receptor (read-out: Ki) is 217 nM; on Cytochrome P450 2E1, “Not Active”; in data set [2], “Not Active”.
On to `CC(CCc1ccccc1)NCC(O)c1ccc(O)c(C(N)=O)c1` (stereo not drawn) [LABETALOL], for which the IC50 result (in data set [1]; at Thromboxane-A synthase; at Progesterone receptor; on Cytochrome P450 2E1; in data set [2]; in data set [3]) was “Not Active” in each case. Also, the Ki entry (on Cytochrome P450 2E1; in data set [2]) was “Not Active” in each case.
Turning to `CC(C)[C@H](N)C(=O)OCCOCn1cnc2c(=O)nc(N)[nH]c21` [VALACYCLOVIR], the IC50 result (in data set [1]; against Thromboxane-A synthase; at Progesterone receptor; on Cytochrome P450 2E1; in data set [2]; in data set [3]) was “Not Active” each time. Also, the Ki result (on Cytochrome P450 2E1; in data set [2]) was “Not Active” each time.
